Results published in patent publication US4515951A, “Preparation of 5,6,7,7a-tetrahydro-4H-thieno[3,2-c]pyridin-2-one compounds” (Sanofi, priority 1980, dated 1985).

Key:
experimental thrombosis = experiment: anti-thrombosis activity, experimental thrombosis caused by extracorporal circulation (Umetsu and Sonoi); type: in vivo, rats; details: control (5% gum arabic) 30.41
Method: This activity was studied by the experimental thrombosis method caused by extracorporal circulation, described by Umetsu and Sonoi (Thrombos. Haemost., 39, […]).
The left jugular vein and the right external carotid are exposed in rats anaesthetised by an intraperitoneal injection of pentobarbital. A shunt is provided which consists of a central catheter and two lateral catheters. A natural white silk thread is introduced into the central part and the circulation is restarted for 20 minutes. After stopping the circulation by clamping, the thread is gently withdrawn and weighed immediately.
Treatment was carried out for 48 hours, 24 hours and 2 hours before the start of the blood circulation in shunt.
The test compounds were administered orally to different groups of animals in the form of a suspension in 10 ml. of 5% gum arabic/kg., the doses used being 12.5 mg./kg., 25 mg./kg., 50 mg./kg., 100 mg./kg. and 200 mg./kg.

in vivo = details: mouse, iv
Excerpt: This study was concerned with the acute, chronic, sub-chronic and delayed toxicities.

[1] = test system: platelet aggregation induced by ADP; experiment: kinetic study of platelet aggregation induced by ADP (Born's nephelometric method, Bryston aggregometer), intraperitoneal; type: in vivo; details: rats
Method: A further experiment was carried out, relating to the kinetic study of the compounds of the present invention.
The blood sample is taken 10 minutes and 60 minutes after this administration and is centrifuged to obtain a plasma enriched in platelets.
The platelet aggregation in the plasma, induced by ADP is measured in a Bryston aggregometer, using Born's nephelometric method.

[2] = test system: platelet aggregation by ADP; experiment: inhibiting action on platelet aggregation by ADP (ADP TEST), plasma of orally treated rats; type: in vivo, Wistar rats; details: Rattus norvegicus, po, 3 h, read-out: Percentage inhibition of platelet aggregation (ADP test)
Method: (§1) A sample of blood is taken from the jugular vein of Wistar rats, which have previously been treated with the compound to be tested. From this blood, which is citrate-treated and centrifuged, there is reconstituted a plasma containing 600,000±20,000 platelets per mm^3, which is employed in all the aggregation measurements.
(§2) 0.4 ml. of plasma is treated in a siliconised tube provided with a bar magnet which is also siliconised. The tube is introduced into an aggregometer connected to an apparatus with which variations in optical density can be recorded. When the light transmission has reached a stable value, 0.5 ml. of a solution containing […] of ADP (adenosine diphosphate)is introduced into the tube.
(§3) Platelet aggregation then causes an increase in light transmission, followed by a reduction in light transmission due to the subsequent disaggregation stage.
(§4) The maximum variation in optical density thus determined relative to that of a plasma free of platelets characterises the intensity of aggregation.
(§5) The measurements are carried out during the 2 hours which follow the taking of the blood sample, this sample being taken 3 hours after treatment with the derivative to be tested.
(§6) Groups of 20 rats were used. Each group received a single dose of the compound to be tested, administered orally, the same compound being administered at different doses ranging from 5 mg./kg. to 100 mg./kg.
(§7) The results obtained are given in the following Tables II and III, which show the percentage inhibition of platelet aggregation obtained relative to the control experiment, 3 hours after treatment with the compound to be tested.

[3] = test system: platelet aggregation by collagen; experiment: inhibiting action on platelet aggregation by collagen (COLLAGEN TEST), plasma of orally treated rats; type: in vivo, Wistar rats; details: Rattus norvegicus, po, 3 h, read-out: Percentage inhibition of platelet aggregation (collagen test)
Method: as §1, §2, §3, §4, §5
The ADP solution is replaced by a solution of collagen (extracted from cattle tendons).
as §6, §7

With O=C1C=C2CN(Cc3ccccc3Cl)CCC2S1 (centres unmarked) [Derivative 1, 5-(o-Chlorobenzyl)-5,6,7,7a-tetrahydro-4H-thieno-[3,2-c]pyridin-2-one] the “Average weight of the thrombi” value (experimental thrombosis; 12.5 mg/kg oral, 48, 24 and 2 hours before) was 27.45 mg, the “Average weight of the thrombi” value (experimental thrombosis; 25 mg/kg oral, 48, 24 and 2 hours before) was 12.21 mg and the “Average weight of the thrombi” value (experimental thrombosis; 50 mg/kg oral, 48, 24 and 2 hours before) was 6.01 mg. The “Average weight of the thrombi” value (experimental thrombosis; 100 mg/kg oral, 48, 24 and 2 hours before) was 4.76 mg, the LD50 at 24 h (in vivo) was 113 mg/kg and the “percentage inhibition as a function of time (platelet aggregation, ADP)” value ([1]; 10 minutes after 100 mg/kg intraperitoneal in propylene glycol) was 42%. The “percentage inhibition as a function of time (platelet aggregation, ADP)” value ([1]; 60 minutes after 100 mg/kg intraperitoneal in propylene glycol) was 97%, the inhibition at 5 mg/kg [2] was 51% and the inhibition at 12.5 mg/kg [2] was 83.6%. The inhibition at 25 mg/kg [2] was 83.7%, the inhibition at 50 mg/kg [2] was 84% and the inhibition at 100 mg/kg [2] was 84.1%. It also gave an inhibition at 5 mg/kg [3] of 16.8%, an inhibition at 12.5 mg/kg [3] of 46.8% and an inhibition at 25 mg/kg [3] of 86.7%. The inhibition at 50 mg/kg [3] was 89.6% and the inhibition at 100 mg/kg [3] was 89.8%.
